Earlier results in publication PMC9475448, “What a difference a methylene makes: replacing Glu with Asp or Aad in the Lys-urea-Glu pharmacophore of PSMA-targeting radioligands to reduce kidney and salivary gland uptake” (Theranostics, 2022).

What was measured:
[1] = system: mouse model; details: up to 657 mg/kg; cited from earlier work
[2] = biological target: T1, PSMA (Homo sapiens, UniProt Q04609); set-up: method as in PMID 30097503; details: read-out: Ki (PSMA inhibitor); cited from earlier work
T1 construct: LNCaP cells (400,000/well) were plated onto a 24-well poly-D-lysine coated plate for 48 h; endogenous in cells; host or cells: LNCaP prostate cancer cells

[3] = system: parotid gland; details: in vivo; cited from earlier work

T1 sequence (Q04609 whole entry): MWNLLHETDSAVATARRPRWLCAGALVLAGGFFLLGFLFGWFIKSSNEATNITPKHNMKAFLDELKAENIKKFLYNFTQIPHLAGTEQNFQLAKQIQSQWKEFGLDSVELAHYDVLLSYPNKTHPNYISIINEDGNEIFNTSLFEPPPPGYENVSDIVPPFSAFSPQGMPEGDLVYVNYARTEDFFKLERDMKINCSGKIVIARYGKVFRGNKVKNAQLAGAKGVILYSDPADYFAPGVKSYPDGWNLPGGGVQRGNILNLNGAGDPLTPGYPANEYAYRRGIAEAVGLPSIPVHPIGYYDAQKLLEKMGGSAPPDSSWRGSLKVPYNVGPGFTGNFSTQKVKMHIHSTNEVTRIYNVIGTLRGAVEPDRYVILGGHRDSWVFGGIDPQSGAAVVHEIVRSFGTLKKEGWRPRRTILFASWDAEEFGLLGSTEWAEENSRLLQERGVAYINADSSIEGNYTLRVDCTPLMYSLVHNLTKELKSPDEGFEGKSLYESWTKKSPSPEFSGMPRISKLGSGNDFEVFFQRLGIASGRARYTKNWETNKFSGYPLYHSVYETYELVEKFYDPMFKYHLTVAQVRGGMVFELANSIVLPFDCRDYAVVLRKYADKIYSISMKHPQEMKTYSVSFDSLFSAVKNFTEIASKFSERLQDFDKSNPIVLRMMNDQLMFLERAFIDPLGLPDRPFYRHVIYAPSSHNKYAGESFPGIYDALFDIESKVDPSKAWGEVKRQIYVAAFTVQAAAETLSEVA

Molecule | Effect of pretreatment on [68Ga]Ga-PSMA-11 uptake [1] | Ki [2] [nM] | Reduction in SUVmean of the treated parotid gland in [68Ga]Ga-PSMA-11 scan vs baseline [3]
N[C@@H](CCC(=O)O)C(=O)[O-].[Na+] [monosodium glutamate] | reduced uptake of [^68Ga]Ga-PSMA-11 in salivary glands and kidneys but had no effect on tumor uptake | 900 | 
botulinum toxin A |  |  | up to 64%
